In the supplement of paper PMC4932681:
Structures can show the parent of a compound that is named as a salt.

Tests used:
Test in all cases: viability inhibition at highest dose (% inhibition); higher = more growth inhibition
BT-474 Tam1 = conditions: 4-OH-tamoxifen in medium 1 µM; 72 h
Summary of the method: (§1)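 Breast cancer cell lines and their resistant derivatives were seeded into 384-well plates holding FO2Baq library drugs at five concentrations spanning a 10 000-fold range. Resistant lines were in medium with 1 μM of the selecting drug. Cells were incubated 72 h at 37 °C, and CellTiter-Glo viability was read on a PHERAstar and normalised to vehicle-only and positive controls. Drug sensitivity score, relative IC50 (curve midpoint) and top-dose inhibition came from logistic dose–response fits (Breeze pipeline).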

BT-474 Tam2 = conditions: 4-OH-tamoxifen in medium 1 µM; 72 h
Summary of the method: as §1

BT-474 = conditions: 72 h
Summary of the method: as §1

MCF-7 Tam1 = conditions: 4-OH-tamoxifen in medium 1 µM; 72 h
Summary of the method: as §1

MCF-7 = conditions: 72 h
Summary of the method: as §1

T-47D Tam1 = conditions: 4-OH-tamoxifen in medium 1 µM; 72 h
Summary of the method: as §1

T-47D Tam2 = conditions: 4-OH-tamoxifen in medium 1 µM; 72 h
Summary of the method: as §1

T-47D = conditions: 72 h
Summary of the method: as §1

ZR-75-1 Tam1 = conditions: 4-OH-tamoxifen in medium 1 µM; 72 h
Summary of the method: as §1

ZR-75-1 Tam2 = conditions: 4-OH-tamoxifen in medium 1 µM; 72 h
Summary of the method: as §1

ZR-75-1 = conditions: 72 h
Summary of the method: as §1

Compound | viability inhibition at highest dose (BT-474 Tam1) | viability inhibition at highest dose (BT-474 Tam2) | viability inhibition at highest dose (BT-474; 4-OH-tamoxifen in medium 0 µM) | viability inhibition at highest dose (BT-474; 4-OH-tamoxifen in medium 1 µM) | viability inhibition at highest dose (MCF-7 Tam1) | viability inhibition at highest dose (MCF-7; 4-OH-tamoxifen in medium 0 µM) | viability inhibition at highest dose (MCF-7; 4-OH-tamoxifen in medium 1 µM) | viability inhibition at highest dose (T-47D Tam1) | viability inhibition at highest dose (T-47D Tam2) | viability inhibition at highest dose (T-47D; 4-OH-tamoxifen in medium 0 µM) | viability inhibition at highest dose (T-47D; 4-OH-tamoxifen in medium 1 µM) | viability inhibition at highest dose (ZR-75-1 Tam1) | viability inhibition at highest dose (ZR-75-1 Tam2) | viability inhibition at highest dose (ZR-75-1; 4-OH-tamoxifen in medium 0 µM) | viability inhibition at highest dose (ZR-75-1; 4-OH-tamoxifen in medium 1 µM)
CCC/C=C/C=C/C(=O)O[C@H]1/C(=C/C(=O)OC)C[C@H]2C[C@H]([C@@H](C)O)OC(=O)C[C@H](O)C[C@@H]3C[C@H](OC(C)=O)C(C)(C)[C@](O)(C[C@@H]4C/C(=C/C(=O)OC)C[C@H](/C=C/C(C)(C)[C@]1(O)O2)O4)O3 [Bryostatin 1] (drug 100 nM) | -4.14 | -0.0992 | 0.0548 | -6.89 | 9.71 | 3.91 | 14.2 | 10.5 | -13.3 | -5.82 | -5.94 | 10.2 | 3.49 | 12.6 | -3.78
CC(=O)c1c(C)c2cnc(Nc3ccc(N4CCNCC4)cn3)nc2n(C2CCCC2)c1=O (drug 10000 nM) | 6.18 | 9.88 | 1.33 | 4.19 | 21.2 | 33.1 | 27.9 | 29.5 | 21.5 | 28.1 | 0.74 | 18.7 | 24.2 | 2.14 | 20.6
Cc1ccc(C(=O)Nc2ccc(CN3CCN(C)CC3)c(C(F)(F)F)c2)cc1C#Cc1cnc2cccnn12 (drug 1000 nM) | 35.9 | 6 | -2.54 | 36.2 | 12.7 | 11.5 | 25.9 | 70.1 | 37.9 | 20.5 | 33.7 | 12.3 | 12 | 3.08 | 12
CN1CC[C@H](c2c(O)cc(O)c3c(=O)cc(-c4ccccc4Cl)oc23)[C@H](O)C1 [Alvocidib (Flavopiridol)] (drug 10000 nM) | 96.8 | 89.5 | 9.07 | 46.1 | 30.1 | 62.9 | 65 | 57.8 | 38.7 | 29.3 | -0.409 | 49.9 | 55.9 | 50.1 | 46.6
C[C@H]1C[C@@H]2[C@H]([C@@H](O)C[C@@]3(C)[C@H]2CC[C@]3(O)C(=O)CO)[C@@]2(C)C=CC(=O)C=C12 [Methylprednisolone] (drug 10000 nM) | -9.86 | -2.3 | -7.44 | -20.6 | -0.753 | -1.81 | 18.4 | -1.09 | 8.67 | -19.3 | -15.1 | 6.19 | 0.244 | -6.28 | -4.27
c1ccc2c(CCNc3ccc(Nc4ccncc4)cc3)c[nH]c2c1 (drug 10000 nM) | 91.8 | 37.9 | -5.93 | 78 | 12.8 | 62.4 | 22.2 | 20.6 | 22.6 | 16.5 | 9.19 | 21.8 | 32.2 | 14 | 25.5
C=C1C[C@@H]2[C@H](CC[C@]3(C)C(=O)CC[C@@H]23)[C@@]2(C)C=CC(=O)C=C12 [Exemestane] (drug 10000 nM) | 0.0289 | -0.955 | 0.814 | 0.09 | 3.68 | 19.4 | 7.88 | 2.32 | 19.2 | -12.5 | -2.8 | 4.25 | -3.66 | -15.1 | -6.66
N#Cc1ccc(C(c2ccc(C#N)cc2)n2cncn2)cc1 [Letrozole] (drug 10000 nM) | -6.74 | -3.68 | -5.7 | -8.86 | -6.5 | -10.7 | -14.2 | -0.0184 | 6.57 | -9.48 | 0.428 | -0.517 | -2.74 | -2.82 | -9.49
CN1CCN(CCOc2cc(OC3CCOCC3)c3c(Nc4c(Cl)ccc5c4OCO5)ncnc3c2)CC1 [Saracatinib] (drug 10000 nM) | 100 | 100 | 50.3 | 94.4 | 4.6 | 25.2 | 15 | 36.6 | 27.9 | 17.5 | -7.13 | -10.5 | -17.9 | -37.6 | -19.4
Cn1c(=O)n(-c2ccc(C(C)(C)C#N)cc2)c2c3cc(-c4cnc5ccccc5c4)ccc3ncc21 [Dactolisib (NVP-BEZ235)] (drug 1000 nM) | 40.8 | 29.2 | 27.6 | 39.4 | 32.4 | 67.7 | 45 | 49.1 | 29.7 | 54.9 | 69.7 | 49.4 | 57 | 51 | 41.8
CC(C)C(=O)Nc1ccc([N+](=O)[O-])c(C(F)(F)F)c1 [Flutamide] (drug 10000 nM) | 6.08 | 6.26 | -10.2 | -11.4 | -3.99 | -18 | 15.9 | 6.02 | 11.2 | 0.571 | -1.73 | -0.0944 | -5.1 | -10.7 | -3.17
C=CCNC1=C2C[C@@H](C)C[C@H](OC)[C@H](O)[C@@H](C)/C=C(\C)[C@H](OC(N)=O)[C@@H](OC)/C=C\C=C(/C)C(=O)NC(=CC1=O)C2=O [Tanespimycin  (17-AAG)] (drug 10000 nM) | 74.9 | 74.3 | 52.1 | 81.8 | 35.7 | 70 | 51.1 | 43.6 | 43.5 | 55.6 | 43.3 | 45.8 | 48.8 | 31 | 45.4
Nc1nc(F)nc2c1ncn2[C@@H]1O[C@H](CO)[C@@H](O)[C@@H]1O [Fludarabine] (drug 10000 nM) | 2.46 | 4.57 | -6.6 | -12.5 | -4.15 | -24.7 | 10 | 20.4 | -0.0717 | -8 | -12.2 | -3.09 | -3.77 | -0.221 | -4.24
O=C(O)C1(C(=O)O)CCC1.[NH2-].[NH2-].[Pt+2] [Carboplatin] (drug 10000 nM) | -1.28 | 3.89 | -12.2 | -19 | -6.52 | 1.69 | 6.48 | -4.98 | 1.93 | -16.3 | -18 | 2.36 | -0.671 | -16.2 | -1.87
Nc1nc(=O)c2c([nH]1)NCC(CNc1ccc(C(=O)N[C@@H](CCC(=O)O)C(=O)O)cc1)N2C=O (mixture of isomers) [Folinic acid] (drug 990000 nM) | 3.17 | 3.09 | 1.3 | -8.34 | -1.58 | 0.626 | 3.23 | -0.031 | -14.6 | 3.41 | -2.78 | 1.59 | 5.23 | 3.64 | -3.47
CC1(C)NC(=O)N(c2ccc([N+](=O)[O-])c(C(F)(F)F)c2)C1=O [Nilutamide] (drug 10000 nM) | -0.747 | 10.7 | -2.3 | -13.3 | -1.08 | -15.4 | 15.9 | 0.496 | 6 | -3.55 | -11.8 | 2.7 | 4.62 | -16.5 | -4.81
c1ccc([C@H]2CN3CCSC3=N2)cc1 [Levamisole, (Tetramisole hydrochloride)] (drug 10000 nM) | -1.57 | 4.72 | -0.587 | -3.62 | -9.5 | -9.38 | 1.67 | -4.38 | 3.27 | 1.99 | -2.51 | -0.419 | 4.7 | 1.62 | 3.25
COc1cc(Nc2c(C#N)cnc3cc(OCCCN4CCN(C)CC4)c(OC)cc23)c(Cl)cc1Cl [Bosutinib] (drug 10000 nM) | 96.4 | 95 | 83.1 | 95 | 50.7 | 81.6 | 78.4 | 72 | 77.5 | 41.6 | 66.7 | 22.6 | 57.5 | 17.9 | 28.8
Cc1c2oc3c(C)ccc(C(=O)N[C@@H]4C(=O)N[C@H](C(C)C)C(=O)N5CCC[C@H]5C(=O)N(C)CC(=O)N(C)[C@@H](C(C)C)C(=O)O[C@@H]4C)c3nc-2c(C(=O)N[C@@H]2C(=O)N[C@H](C(C)C)C(=O)N3CCC[C@H]3C(=O)N(C)CC(=O)N(C)[C@@H](C(C)C)C(=O)O[C@@H]2C)c(N)c1=O [Dactinomycin] (drug 1000 nM) | 95.6 | 88.4 | 36.7 | 81.9 | 61.6 | 74.5 | 72.2 | 63.4 | 62.7 | 49.2 | 31.5 | 55.6 | 60.9 | 45.4 | 53.8
Cc1ccc(-n2nc(C(C)(C)C)cc2NC(=O)Nc2ccc(OCCN3CCOCC3)c3ccccc23)cc1 [Doramapimod (BIRB 796)] (drug 10000 nM) | 21 | -5.97 | 3.99 | 15 | 9.34 | 17.6 | 19.3 | -1.73 | 17 | 6.71 | -2.59 | 1.82 | 2.11 | -1.07 | 0.647
O=C(NC[C@H](O)CO)c1ccncc1Nc1ccc(I)cc1F (drug 10000 nM) | 13.6 | 6.28 | 17.2 | 48 | 12.7 | 35.6 | 19.8 | 35.6 | 34 | 10.4 | -8.51 | 2.34 | 7.84 | 7.13 | 10
CNC(=O)c1ccc(N2C(=S)N(c3ccc(C#N)c(C(F)(F)F)c3)C(=O)C23CCC3)cc1F [RD162] (drug 10000 nM) | 13.8 | 13.7 | -4.36 | -3.06 | 3.13 | -8.95 | 8.98 | 3.92 | 3.39 | -17.8 | 17.8 | 2.17 | 1.22 | -4.4 | 3.37
S=P(N1CC1)(N1CC1)N1CC1 [Thio-TEPA] (drug 100000 nM) | 11.3 | 9.92 | -3.59 | -5.3 | -0.761 | -13.2 | 9.81 | 3.55 | -1.13 | 2.16 | -2.96 | 11.1 | 4.16 | 4.61 | -3.56
Clc1ccc(C(c2ccccc2Cl)C(Cl)Cl)cc1 (stereo not given) [Mitotane] (drug 10000 nM) | 4.23 | 3.56 | -9.37 | -3.54 | -2.99 | -8.27 | 0.312 | 8.29 | 8.17 | -16.5 | -15.2 | 1.3 | -0.971 | -16.5 | -2.85
O=c1[nH]cc(F)c(=O)[nH]1 [Fluorouracil] (drug 10000 nM) | 1.71 | 0.595 | -7.65 | -2.76 | 8.84 | 35.1 | 4.26 | 5.54 | 9.76 | 13.4 | 10.1 | 8.57 | 17.1 | 16.4 | 15.2
COc1cc2c(cc1O)CC[C@@H]1[C@@H]2CC[C@]2(C)[C@@H](O)CC[C@@H]12 [2-methoxyestradiol  (Panzem)] (drug 10000 nM) | 27.1 | 24.3 | 48.9 | 63.3 | -11.2 | 24.8 | 17.7 | 24.5 | 29.8 | 32.6 | -2.41 | 6.41 | 3.21 | 36.8 | 2.3
